The values that follow come from patent US8278319B2, “Substituted spiroamine compounds” (Gruenenthal GmbH, priority 2008, dated 2012).

One test concerns the target T1, human B1R (Homo sapiens, UniProt P46663).
T1 construct: expressed in transfected cells; host or cells: CHO K1 cells
T1 sequence (P46663 1-353): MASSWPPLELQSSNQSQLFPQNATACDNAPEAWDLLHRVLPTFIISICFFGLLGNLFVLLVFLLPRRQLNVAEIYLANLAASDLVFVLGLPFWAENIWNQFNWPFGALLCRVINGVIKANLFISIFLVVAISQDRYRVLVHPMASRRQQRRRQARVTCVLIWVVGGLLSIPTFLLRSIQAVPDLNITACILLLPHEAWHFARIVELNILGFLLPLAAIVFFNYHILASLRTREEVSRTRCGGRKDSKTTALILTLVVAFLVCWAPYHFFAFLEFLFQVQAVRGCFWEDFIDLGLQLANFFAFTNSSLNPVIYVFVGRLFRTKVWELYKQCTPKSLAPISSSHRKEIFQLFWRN
In words: Functional investigation on the bradykinin receptor 1 (B1R), FLIPR Ca2+ assay, hB1R cells. Type of test: cell-based. Particulars: % inhibition human B1R at 10 μM; CHO K1 cells transfected with human B1R; agonist Lys-Des-Arg9 bradykinin at EC80; read-out: % Inh. (hum. B1R) 10 μM. As to the method: (§1) The agonistic or antagonistic action of substances can be quantified on the bradykinin receptor 1 (B1R) of the human and rat species with ectopically expressing cell lines (CHO K1 cells) and with the aid of a Ca^2+-sensitive dye (Fluo-4) using a fluorescent imaging plate reader (FLIPR). The indication in % activation is based on the Ca^2+ signal after addition of Lys-Des-Arg^9 bradykinin (0.5 nM) or Des-Arg^9 bradykinin (100 nM). Antagonists lead to a suppression of the Ca^2+ influx following administration of the agonist. The % inhibition in comparison with the maximum achievable inhibition is indicated.
(§2) The agonistic or antagonistic action of substances can be determined on the bradykinin 1 receptor (B1R) of the human and rat species with the following assay. According to this assay, the Ca^2+ inflow through the channel is quantified with the aid of a Ca^2+-sensitive dye (Fluo-4 type, Molecular Probes Europe BV, Leiden, The Netherlands) in a fluorescent imaging plate reader (FLIPR, Molecular Devices, Sunnyvale, USA).
(§3) Chinese hamster ovary cells (CHO K1 cells) which are stably transfected with the human B1R gene (hB1R cells) or the B1R gene of the rat (rB1R cells) are used. For functional investigations, these cells are plated-out onto black 96-well plates with a clear base (BD Biosciences, Heidelberg, Germany or Greiner, Frickenhausen, Germany) in a density of 20,000-35,000 cells/well. Overnight, the cells are incubated at 37° C. and 5% CO2 in culture medium (hB1R cells: Nutrient Mixture Ham's F12, Gibco Invitrogen GmbH, Karlsruhe, Germany or DMEM, Sigma-Aldrich, Taufkirchen, Germany; rB1R cells: D-MEM/F12, Gibco Invitrogen, Karlsruhe, Germany) with 10 vol. % FBS (foetal bovine serum, Gibco Invitrogen GmbH, Karlsruhe, Germany or PAN Biotech GmbH, Aidenbach, Germany). On the following day the cells are loaded with 2.13 μM Fluo-4 (Molecular Probes Europe BV, Leiden, The Netherlands) in HBSS buffer (Hank's buffered saline solution, Gibco Invitrogen GmbH, Karlsruhe, Germany) with 2.5 mM probenecid (Sigma-Aldrich, Taufkirchen, Germany) and 10 mM HEPES (Sigma-Aldrich, Taufkirchen, Germany) for 60 min at 37° C. The plates are the washed twice with HBSS buffer, and HBSS buffer which additionally contains 0.1% BSA (bovine serum albumin; Sigma-Aldrich, Taufkirchen, Germany), 5.6 mM glucose and 0.05% gelatine (Merck KGaA, Darmstadt, Germany) is added. After a further incubation of 20 minutes at room temperature, the plates are inserted into the FLIPR for Ca^2+ measurement. Alternatively they are washed with buffer A (15 mM HEPES, 80 mM NaCl, 5 mM KCl, 1.2 mM CaCl2, 0.7 mM MgSO4, 2 g/l glucose, 2.5 mM probenecid) and loaded with buffer A with added 2.5 μM Fluo-4 and 0.025% Pluronic F127 (Sigma-Aldrich, Taufkirchen, Germany). The cells are then washed twice with buffer A and incubated for 30 minutes with buffer A, which additionally contains 0.05% BSA and 0.05% gelatine, at room temperature and then used for Ca^2+ measurement in the FLIPR.
(§4) The Ca^2+-dependent fluorescence is measured here before and after addition of substances (λex=488 nm, λem=540 nm). The quantification is performed by measuring the highest fluorescence intensity (FC, fluorescence counts) over time.
(§5) The FLIPR protocol comprises two additions of substance. Test substances (10 μM) are first pipetted onto the cells and the Ca^2+ inflow is compared with the control (hB1R: Lys-Des-Arg^9 bradykinin>=50 nM; rB1R: Des-Arg^9 bradykinin 10 μM). The value in % activation based on the Ca^2+ signal after addition of Lys-Des-Arg^9 bradykinin (>=50 nM) or Des-Arg^9 bradykinin (10 μM) is obtained therefrom. After incubation for 10-20 minutes, Lys-Des-Arg^9 bradykinin (hB1R) or Des-Arg^9 bradykinin (rB1R) is applied in the EC80 concentration and the inflow of Ca^2+ is likewise determined. Antagonists lead to a suppression of the Ca^2+ inflow. The % inhibition in comparison with the maximum achievable inhibition is calculated. […]

The next test deals with T2, rat B1R (Rattus norvegicus, UniProt P97583).
T2 construct: expressed in transfected cells; host or cells: CHO K1 cells
T2 sequence (P97583 1-337): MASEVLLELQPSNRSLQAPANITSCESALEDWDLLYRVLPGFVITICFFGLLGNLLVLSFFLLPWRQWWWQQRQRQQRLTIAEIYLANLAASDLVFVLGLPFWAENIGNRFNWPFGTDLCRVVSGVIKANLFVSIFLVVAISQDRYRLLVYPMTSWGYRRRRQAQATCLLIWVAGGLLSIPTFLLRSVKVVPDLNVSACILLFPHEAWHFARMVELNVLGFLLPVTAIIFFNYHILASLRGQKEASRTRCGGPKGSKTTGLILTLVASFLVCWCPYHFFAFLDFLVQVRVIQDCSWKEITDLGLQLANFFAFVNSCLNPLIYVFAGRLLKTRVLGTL
The test can be described thus: Functional investigation on the bradykinin receptor 1 (B1R), FLIPR Ca2+ assay, rB1R cells. The test is classed as cell-based. Conditions: % inhibition rat B1R at 10 μM; CHO K1 cells transfected with rat B1R; agonist Des-Arg9 bradykinin at EC80; read-out: % Inh. (rat B1R) 10 μM. How it is done:
as §1, §2, §3, §4, §5

Regarding `O=C(CC(NS(=O)(=O)c1ccc2ccccc2c1)c1ccccc1)N1CCC2(CC1)CCC(c1cccc(F)c1)(N1CCCC1)CC2` (centres unmarked) [CC-08, N-[3-[3-(3-Fluorophenyl)-3-pyrrolidin-1-yl-9-azaspiro[5.5]undecan-9-yl]-3-oxo-1-phenyl-propyl]-naphthalene-2-sulfonic acid amide], the inhibition at 10 µM stood at 81% on human B1R and 96% on rat B1R.
With `COc1cc(C)c(S(=O)(=O)N(CCOCC(=O)N2CCC3(CC2)CCC(c2ccccc2)(N(C)C)CC3)C2CC2)c(C)c1` [Compound 3, N-Cyclopropyl-N-(2-(2-(9-(dimethylamino)-9-phenyl-3-azaspiro[5.5]undecan-3-yl)-2-oxoethoxy)ethyl)-4-methoxy-2,6-dimethylbenzenesulfonamide], the inhibition at 10 µM was 100% at human B1R and 102% on rat B1R.
`CN(C)C1(c2cccs2)CCC2(CCN(C(=O)CC3CCCCN3S(=O)(=O)c3cccc(C(F)(F)F)c3)CC2)CC1` (centres unmarked) [CC-10, 1-(3-Dimethylamino-3-thiophen-2-yl-9-azaspiro[5.5]undecan-9-yl)-2-[1-[[3-(trifluoromethyl)phenyl]sulfonyl]-piperidin-2-yl]-ethanone]: the values for the inhibition at 10 µM on human B1R and at rat B1R were 84% and 79%, respectively.
With `COc1cc(C)c(S(=O)(=O)N2CCCCC2CCCC(=O)N2CCC3(CC2)CCC(c2cccs2)(N(C)C)CC3)c(C)c1` (centres unmarked) [CC-16, 1-(3-Dimethylamino-3-thiophen-2-yl-9-azaspiro[5.5]undecan-9-yl)-4-[1-[(4-methoxy-2,6-dimethyl-phenyl)sulfonyl]-piperidin-2-yl]-butan-1-one], the inhibition at 10 µM on human B1R was determined as 99%; on rat B1R, 102%.
`CN(C)C1(c2ccccc2)CCC2(CCN(C(=O)CC3CCCCN3S(=O)(=O)c3cccc(C(F)(F)F)c3)CC2)CC1` (centres unmarked) [Compound 9, 1-(9-(Dimethylamino)-9-phenyl-3-azaspiro[5.5]undecan-3-yl)-2-(1-(3-(trifluoromethyl)phenylsulfonyl)piperidin-2-yl)ethan-1-one]: the inhibition at 10 µM at human B1R was found to be 92%; on rat B1R it was 38%.
As to `COc1cc(C)c(S(=O)(=O)N2CCCC[C@H]2COCC(=O)N2CCC3(CC2)CCC(c2ccccc2)(N2CC(F)(F)C2)CC3)c(C)c1` [Compound 13, 1-(9-(3,3-Difluoroazetidin-1-yl)-9-phenyl-3-azaspiro[5.5]undecan-3-yl)-2-(((S)-1-(4-methoxy-2,6-dimethylphenylsulfonyl)piperidin-2-yl)methoxy)ethanone], the inhibition at 10 µM on human B1R is 86%; at rat B1R it was 104%.
Turning to `COc1cc(C)c(S(=O)(=O)N2C=CNC(=O)[C@H]2CC(=O)N2CCC3(CC2)CCC(c2ccccc2)(N(C)C)CC3)c(C)c1` [Compound 10, (3R)-3-(2-(9-(Dimethylamino)-9-phenyl-3-azaspiro[5.5]undecan-3-yl)-2-oxoethyl)-4-(4-methoxy-2,6-dimethylphenylsulfonyl)-3,4-dihydropyrazin-2(1H)-one], the inhibition at 10 µM on human B1R turned out to be 100%; at rat B1R it was 92%.
On to `CN(C)C1(c2cccs2)CCC2(CCN(C(=O)CC(NS(=O)(=O)c3ccc4ccccc4c3)c3ccccc3)CC2)CC1` (centres unmarked) [CC-15, N-[3-(3-Dimethylamino-3-thiophen-2-yl-9-azaspiro[5.5]undecan-9-yl)-3-oxo-1-phenyl-propyl]-naphthalene-2-sulfonic acid amide], for which the inhibition at 10 µM worked out at 69% at human B1R and 100% at rat B1R.
For `COc1cc(C)c(S(=O)(=O)N2CCCC[C@H]2COCC(=O)N2CCC3(CC2)CCC(c2ccccc2)(N(C)C)CC3)c(C)c1` [Compound 2, 1-(9-(Dimethylamino)-9-phenyl-3-azaspiro[5.5]undecan-3-yl)-2-(((S)-1-(4-methoxy-2,6-dimethylphenylsulfonyl)piperidin-2-yl)methoxy)ethanone], the inhibition at 10 µM on human B1R was found to be 100%; on rat B1R, 94%.
Consider `Cc1cccc(Cl)c1S(=O)(=O)N1CCCCC1COCC(=O)N1CCC2(CC1)CCC(c1cccs1)(N(C)C)CC2` (centres unmarked) [CC-13, 2-[[1-[(2-Chloro-6-methyl-phenyl)sulfonyl]-piperidin-2-yl]-methoxy]-1-(3-dimethylamino-3-thiophen-2-yl-9-azaspiro[5.5]undecan-9-yl)-ethanone], for which the inhibition at 10 µM at human B1R stood at 100%; at rat B1R, 98%.
As for `Cc1cc(S(=O)(=O)N2CCCCC2CCC(=O)N2CCC3(CC2)CCC(c2cccc(F)c2)(N2CCCC2)CC3)c(C)cc1Cl` (centres unmarked) [CC-07, 3-[1-[(4-Chloro-2,5-dimethyl-phenyl)sulfonyl]-piperidin-2-yl]-1-[3-(3-fluorophenyl)-3-pyrrolidin-1-yl-9-azaspiro[5.5]undecan-9-yl]-propan-1-one], the inhibition at 10 µM at human B1R is 99%; on rat B1R, 86%.
With `COc1cc(C)c(S(=O)(=O)N2c3ccccc3C[C@H]2COCC(=O)N2CCC3(CC2)CCC(c2ccccc2)(N(C)C)CC3)c(C)c1` [Compound 4, 1-(9-(Dimethylamino)-9-phenyl-3-azaspiro[5.5]undecan-3-yl)-2-(((S)-1-(4-methoxy-2,6-dimethylphenylsulfonyl)indolin-2-yl)methoxy)ethanone], the inhibition at 10 µM on human B1R was found to be 98%; on rat B1R, 102%.
Consider `COc1cc(C)c(S(=O)(=O)N2CCCC[C@H]2COCC(=O)N2CCC3(CC2)CCC(c2ccccc2)(N2CCC2)CC3)c(C)c1` [Compound 12, 1-(9-(Azetidin-1-yl)-9-phenyl-3-azaspiro[5.5]undecan-3-yl)-2-(((S)-1-(4-methoxy-2,6-dimethylphenylsulfonyl)piperidin-2-yl)methoxy)ethanone], for which the inhibition at 10 µM was found to be 100% on human B1R and 102% at rat B1R.
